Source: ChEMBL document CHEMBL1151440, “Safety and pharmacokinetics of GSK364735, a human immunodeficiency virus type 1 integrase inhibitor, following single and repeated administration in healthy adult subjects” (Antimicrob Agents Chemother, 2007)

Tests used:
Rhesus monkey = experiment: Clearance in iv dosed monkey assessed as liver blood flow; type: ADME, organism-based, Macaca mulatta; conditions: in vivo
[1] = Apparent oral clearance in fasted human at 400 mg administered as single dose; type: ADME, organism-based; conditions: in vivo
[2] = Cmax in human at 400 mg administered with fat meal daily for 8 days measured on day 8; type: ADME, organism-based; design: dose 400 mg; conditions: in vivo
Homo sapiens [3] = experiment: Toxicity in human assessed as adverse effect at 50 to 200 mg administered as single dose; type: organism-based; conditions: in vivo
[4] = Apparent oral clearance in human at 100 mg administered with fat meal every 12 hrs for 8 days measured on day 1; type: ADME, organism-based; conditions: in vivo
Homo sapiens [5] = species: Homo sapiens; experiment: Toxicity in human assessed as headache at 400 mg daily for 8 days; type: organism-based; conditions: in vivo, 192 h
Homo sapiens [6] = experiment: Toxicity in human assessed as changes in hematology at 50 to 400 mg after sequential repeated administration for 8 days; type: organism-based; conditions: in vivo, 192 h
[7] = Cmax in fasted human at 400 mg administered as single dose; type: ADME, organism-based; design: dose 400 mg; conditions: in vivo
[8] = AUC (0 to infinity) in fasted human at 100 mg administered as single dose; type: ADME, organism-based; design: dose 100 mg, time infinity; conditions: plasma
[9] = Terminal elimination half life in iv dosed dog; type: ADME, organism-based, Canis lupus familiaris; conditions: in vivo, read-out: beta t1/2 (converted)
[10] = AUC (0 to 12 hrs) in human at 50 mg administered with fat meal every 12 hrs for 8 days measured on day 8; type: ADME, organism-based; design: dose 50 mg, time < 12 hr; conditions: plasma
[11] = Plasma concentration in human at 50 mg administered with fat meal every 12 hrs for 8 days measured on day 1 after 12 hrs of first dose; type: ADME, organism-based
Rattus norvegicus = experiment: Clearance in iv dosed rat assessed as liver blood flow; type: ADME, organism-based; conditions: in vivo
Homo sapiens [12] = experiment: Toxicity in human assessed as changes in vital sign at 50 to 400 mg after sequential repeated administration for 8 days; type: organism-based; conditions: in vivo, 192 h
[13] = Apparent oral clearance in human at 100 mg administered with fat meal every 12 hrs for 8 days measured on day 8; type: ADME, organism-based; conditions: in vivo
[14] = Terminal elimination half life in human at 400 mg administered with fat meal as single dose; type: ADME, organism-based; conditions: in vivo, read-out: beta t1/2 (converted)
[15] = Apparent oral clearance in human at 50 mg administered with fat meal every 12 hrs for 8 days measured on day 1; type: ADME, organism-based; conditions: in vivo
Homo sapiens [16] = experiment: Toxicity in human assessed as headache at 100 mg administered every 12 hrs for 8 days; type: organism-based; conditions: in vivo
[17] = Terminal elimination half life in human at 400 mg administered with fat meal daily for 8 days measured on day 1; type: ADME, organism-based; conditions: in vivo, read-out: beta t1/2 (converted)
Homo sapiens [18] = experiment: Toxicity in human assessed as adverse effect at 200 mg administered every 8 hrs for 8 days; type: organism-based; conditions: in vivo
[19] = Tmax in human at 200 mg administered with fat meal every 8 hrs for 8 days measured on day 8; type: ADME, organism-based; conditions: in vivo
[20] = AUC (0 to infinity) in human at 200 mg administered with fat meal every 8 hrs for 8 days measured on day 1; type: ADME, organism-based; design: dose 200 mg, time infinity; conditions: plasma
[21] = Apparent oral clearance in fasted human at 200 mg administered as single dose; type: ADME, organism-based; conditions: in vivo
[22] = Apparent oral clearance in fasted human at 50 mg administered as single dose; type: ADME, organism-based; conditions: in vivo
[23] = AUC (0 to 12 hrs) in human at 200 mg administered with fat meal every 12 hrs for 8 days measured on day 8; type: ADME, organism-based; design: dose 200 mg, time < 12 hr; conditions: plasma
[24] = Apparent oral clearance in human at 50 mg administered with fat meal every 12 hrs for 8 days measured on day 8; type: ADME, organism-based; conditions: in vivo
[25] = Apparent oral clearance in human at 200 mg administered with fat meal as single dose; type: ADME, organism-based; conditions: in vivo
[26] = Terminal elimination half life in human at 50 mg administered with fat meal every 12 hrs for 8 days measured on day 8; type: ADME, organism-based; conditions: in vivo, read-out: beta t1/2 (converted)
Homo sapiens [27] = experiment: Toxicity in human assessed as changes in continuous telemetry monitoring at 50 to 200 mg administered as single dose; type: organism-based; conditions: in vivo
[28] = AUC (0 to infinity) in human at 400 mg administered with fat meal as single dose; type: ADME, organism-based; design: dose 400 mg, time infinity; conditions: plasma
[29] = Terminal elimination half life in human at 50 mg administered with fat meal every 12 hrs for 8 days measured on day 1; type: ADME, organism-based; conditions: in vivo, read-out: beta t1/2 (converted)
[30] = Apparent oral clearance in human at 200 mg administered with fat meal every 8 hrs for 8 days measured on day 8; type: ADME, organism-based; conditions: in vivo
[31] = Terminal elimination half life in iv dosed monkey; type: ADME, organism-based, Macaca mulatta; conditions: rhesus monkey, in vivo, read-out: beta t1/2 (converted)
Homo sapiens [32] = experiment: Toxicity in human assessed as dizziness at 50 mg administered every 12 hrs for 8 days; type: organism-based; conditions: in vivo
[33] = AUC (0 to infinity) in fasted human at 400 mg administered as single dose; type: ADME, organism-based; design: dose 400 mg, time infinity; conditions: plasma
[34] = Oral bioavailability in dog; type: ADME, organism-based, Canis lupus familiaris; conditions: in vivo
[35] = Tmax in human at 50 mg administered with fat meal every 12 hrs for 8 days measured on day 1; type: ADME, organism-based; conditions: in vivo
[36] = Cmax in human at 200 mg administered with fat meal every 12 hrs for 8 days measured on day 8; type: ADME, organism-based; design: dose 200 mg; conditions: in vivo
[37] = Apparent oral clearance in human at 400 mg administered with fat meal daily for 8 days measured on day 8; type: ADME, organism-based; conditions: in vivo
Homo sapiens [38] = species: Homo sapiens; experiment: Toxicity in human assessed as adverse effect at 400 mg daily for 8 days; type: organism-based; conditions: in vivo, 192 h
[39] = Terminal elimination half life in iv dosed rat; type: ADME, organism-based; conditions: in vivo, read-out: beta t1/2 (converted)
[40] = Oral bioavailability rat; type: ADME, organism-based; conditions: in vivo
[41] = Plasma concentration in human at 400 mg administered with fat meal every 12 hrs for 8 days measured on day 1 after 12 hrs of first dose; type: ADME, organism-based
[42] = Tmax in fasted human at 200 mg administered as single dose; type: ADME, organism-based; conditions: in vivo
Homo sapiens [43] = experiment: Toxicity in human assessed as dizziness at 100 mg administered every 12 hrs for 8 days; type: organism-based; conditions: in vivo
[44] = AUC (0 to infinity) in human at 200 mg administered with fat meal every 12 hrs for 8 days measured on day 1; type: ADME, organism-based; design: dose 200 mg, time infinity; conditions: plasma
[45] = Terminal elimination half life in fasted human at 100 mg administered as single dose; type: ADME, organism-based; conditions: in vivo, read-out: beta t1/2 (converted)
[46] = AUC (0 to 24 hrs) in human at 400 mg administered with fat meal daily for 8 days measured on day 8; type: ADME, organism-based; design: dose 400 mg, time < 24 hr; conditions: plasma
Homo sapiens [47] = experiment: Toxicity in human assessed as dizziness at 200 mg administered every 12 hrs for 8 days; type: organism-based; conditions: in vivo
[48] = Terminal elimination half life in human at 400 mg administered with fat meal daily for 8 days measured on day 8; type: ADME, organism-based; conditions: in vivo, read-out: beta t1/2 (converted)
Homo sapiens [49] = species: Homo sapiens; experiment: Protein binding in human plasma by equilibrium dialysis assay; conditions: read-out: PB
[50] = Tmax in human at 50 mg administered with fat meal every 12 hrs for 8 days measured on day 8; type: ADME, organism-based; conditions: in vivo
Homo sapiens [51] = experiment: Toxicity in human assessed as headache at 200 mg administered every 8 hrs for 8 days; type: organism-based; conditions: in vivo
[52] = AUC (0 to 12 hrs) in human at 100 mg administered with fat meal every 12 hrs for 8 days measured on day 8; type: ADME, organism-based; design: time < 12 hr, dose 100 mg; conditions: plasma
[53] = Cmax in human at 400 mg administered with fat meal daily for 8 days measured on day 1; type: ADME, organism-based; design: dose 400 mg; conditions: in vivo
[54] = Tmax in fasted human at 400 mg administered with fat meal as single dose; type: ADME, organism-based; conditions: in vivo
[55] = Cmax in human at 200 mg administered with fat meal every 8 hrs for 8 days measured on day 8; type: ADME, organism-based; design: dose 200 mg; conditions: in vivo
[56] = AUC (0 to infinity) in human at 400 mg administered with fat meal daily for 8 days measured on day 1; type: ADME, organism-based; design: dose 400 mg, time infinity; conditions: plasma
[57] = Tmax in human at 400 mg administered with fat meal daily for 8 days measured on day 1; type: ADME, organism-based; conditions: in vivo

QH (Rhesus monkey): 4.6% | CL/F [1]: 1020 mL/min | Cmax [2]: 2100 ng/mL | CL/F [4]: 147 mL/min | Cmax [7]: 1300 ng/mL | AUC(0-inf) [8]: 5200 ng·h/mL | half-life [9]: 1.5 h | AUC at 12 h [10]: 5600 ng·h/mL | concentration at 12 h [11]: 93 ng/mL | QH (Rattus norvegicus): 5.8% | CL/F [13]: 138 mL/min | half-life [14]: 5.8 h | CL/F [15]: 217 mL/min | half-life [17]: 4.1 h | Tmax [19]: 4 h | AUC(0-inf) [20]: 5900 ng·h/mL | CL/F [21]: 600 mL/min | CL/F [22]: 267 mL/min | AUC at 12 h [23]: 9600 ng·h/mL | CL/F [24]: 150 mL/min | CL/F [25]: 317 mL/min | half-life [26]: 3.7 h | AUC(0-inf) [28]: 8500 ng·h/mL | half-life [29]: 2.6 h | CL/F [30]: 683 mL/min | half-life [31]: 1.5 h | AUC(0-inf) [33]: 6600 ng·h/mL | bioavailability [34]: 6% | Tmax [35]: 5.5 h | Cmax [36]: 1600 ng/mL | CL/F [37]: 550 mL/min | half-life [39]: 1.5 h | bioavailability [40]: 6% | concentration at 12 h [41]: 340 ng/mL | Tmax [42]: 2.5 h | AUC(0-inf) [44]: 9200 ng·h/mL | half-life [45]: 2.9 h | AUC at 24 h [46]: 12000 ng·h/mL | half-life [48]: 4.4 h | fraction unbound (Homo sapiens [49]): 0.01 | Tmax [50]: 3.75 h | AUC at 12 h [52]: 12000 ng·h/mL | Cmax [53]: 2200 ng/mL | Tmax [54]: 7 h | Cmax [55]: 970 ng/mL | AUC(0-inf) [56]: 15000 ng·h/mL | Tmax [57]: 5 h
Structure (SMILES): Cn1c(=O)c(C(=O)NCCO)c(O)c2ncc(Cc3ccc(F)cc3)cc21 [GSK-364735]
Activity (Homo sapiens [3]): 4% | Activity (Homo sapiens [5]): Non-toxic | Activity (Homo sapiens [6]): Non-toxic | Activity (Homo sapiens [12]): Non-toxic | Activity (Homo sapiens [16]): 13% | Activity (Homo sapiens [18]): 63% | Activity (Homo sapiens [27]): Non-toxic | Activity (Homo sapiens [32]): Non-toxic | Activity (Homo sapiens [38]): Non-toxic | Activity (Homo sapiens [43]): 13% | Activity (Homo sapiens [47]): Non-toxic | Activity (Homo sapiens [51]): 13%
